Assay results as given in paper PMC4300089, “Structure-Guided Design of Selective Epac1 and Epac2 Agonists” (PLoS Biology, 2015).

Tests used:
Epac1^Q270K = target: T1, Epac1^Q270K (Homo sapiens, UniProt O95398, Q312K); experiment: Epac activation assay, Epac1 Q270K mutant; assay type: biochemical
T1 construct: made in house
T1 sequence (O95398 150-881 isoform O95398-3 Q270K): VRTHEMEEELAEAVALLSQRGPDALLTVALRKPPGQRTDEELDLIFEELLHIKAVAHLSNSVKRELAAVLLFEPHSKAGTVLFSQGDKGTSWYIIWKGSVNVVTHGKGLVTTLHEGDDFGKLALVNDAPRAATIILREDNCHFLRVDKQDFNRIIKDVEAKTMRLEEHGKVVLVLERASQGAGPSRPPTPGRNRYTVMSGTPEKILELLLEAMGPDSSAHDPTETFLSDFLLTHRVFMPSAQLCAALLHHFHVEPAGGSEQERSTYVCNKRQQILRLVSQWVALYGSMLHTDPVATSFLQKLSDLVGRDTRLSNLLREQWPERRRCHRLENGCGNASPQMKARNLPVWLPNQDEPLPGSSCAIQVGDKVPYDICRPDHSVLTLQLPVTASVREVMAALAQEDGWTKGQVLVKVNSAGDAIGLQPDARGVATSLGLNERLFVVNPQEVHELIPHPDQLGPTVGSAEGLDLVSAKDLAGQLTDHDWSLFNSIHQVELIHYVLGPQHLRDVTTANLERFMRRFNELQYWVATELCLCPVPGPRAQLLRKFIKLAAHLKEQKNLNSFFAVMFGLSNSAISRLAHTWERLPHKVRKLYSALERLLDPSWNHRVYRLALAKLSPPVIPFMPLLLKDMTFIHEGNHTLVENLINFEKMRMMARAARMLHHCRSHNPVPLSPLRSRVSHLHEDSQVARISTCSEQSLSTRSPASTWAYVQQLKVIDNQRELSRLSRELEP

Epac2^Δ280,K405Q = target: T2, Epac2^Δ280,K405Q (Mus musculus, UniProt Q9EQZ6, K423Q); experiment: Epac activation assay, Epac2 K405Q mutant; assay type: biochemical
T2 construct: made in house
T2 sequence (Q9EQZ6 281-993 isoform Q9EQZ6-3 K405Q): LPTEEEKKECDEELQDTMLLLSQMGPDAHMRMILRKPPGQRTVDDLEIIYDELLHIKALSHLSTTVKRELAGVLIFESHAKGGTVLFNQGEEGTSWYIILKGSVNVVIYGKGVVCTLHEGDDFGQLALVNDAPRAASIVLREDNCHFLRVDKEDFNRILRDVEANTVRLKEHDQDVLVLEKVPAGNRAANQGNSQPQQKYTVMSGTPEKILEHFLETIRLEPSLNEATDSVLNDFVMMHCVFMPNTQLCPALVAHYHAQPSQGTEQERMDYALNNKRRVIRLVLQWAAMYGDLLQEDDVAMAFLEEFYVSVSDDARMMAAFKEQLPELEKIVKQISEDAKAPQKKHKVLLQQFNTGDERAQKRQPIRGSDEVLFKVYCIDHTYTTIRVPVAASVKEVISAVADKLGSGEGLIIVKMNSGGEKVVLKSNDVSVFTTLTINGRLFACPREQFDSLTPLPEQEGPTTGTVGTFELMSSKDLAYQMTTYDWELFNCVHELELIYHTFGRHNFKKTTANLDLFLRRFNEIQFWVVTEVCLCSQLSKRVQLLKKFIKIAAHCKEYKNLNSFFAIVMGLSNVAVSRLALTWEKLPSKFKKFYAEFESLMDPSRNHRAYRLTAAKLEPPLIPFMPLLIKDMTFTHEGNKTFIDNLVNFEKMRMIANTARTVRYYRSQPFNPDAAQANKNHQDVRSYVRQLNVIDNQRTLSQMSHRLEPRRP
Procedure: Murine Epac2 was used as all previous structural studies were performed with it.
The activity of Epac was determined by a fluorescence assay. […] The fluorescence intensity of Rap1B•mGDP is approximately twice that of free mGDP, and thus, nucleotide exchange can be observed as a decay in fluorescence upon the addition of excess unlabeled GDP.

Structure (SMILES): COC1C2OP(=O)(O)OCC2OC1n1c(Sc2ccc(Cl)cc2)nc2c(N)ncnc21 [D-007, 8-pCPT-2′-O-Me-cAMP, reference compound]
- activation (Epac1^Q270K): poorly activated
- activation (Epac2^Δ280,K405Q): efficiently activated
